Assay results taken from patent US20240366612A1, “COMPOUNDS AND METHODS FOR MODULATING NUCLEIC ACID SPLICING” (REMIX THERAPEUTICS INC., priority 2021, published 2024).
Counter-ions that a name gives are not always drawn.

Columns and labels:
MYB mRNA = test: Splicing RT-qPCR assay, MYB canonical (CJ) and alternative (AJ) junction mRNA; format: cell-based; details: Homo sapiens, A673 or K562 cells, 24 hours treatment; for IC50: decrease in CJ mRNA; for AC50: increase in AJ mRNA
Summary of the method: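 Compound-treated A673 or K562 cells (11-point 3-fold dilution, top dose 10 uM final, DMSO ≤0.25%) were incubated for 24 h at 37° C. Lysates underwent one-step RT-qPCR for canonical and alternative-exon junction isoforms. Normalization used PPIA for A673 and GAPDH or GUSB for K562.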

[1] = Cell Titer Glo 2.0 cell viability assay; details: human, K562 cells
[2] = system: HiBiT-tagged MYB protein in K562 cells; test: HiBiT protein abundance assay, MYB; format: cell-based, human; details: HiBiT-modified K562 cells, 24 hours, luminescence
Summary of the method: (§1)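 K562 lines with the endogenous target HiBiT-tagged, seeded in IMDM+1% FBS, got a 10-point 3-fold dilution series (top final 10 μM, DMSO ≤0.25%) for 24 hours at 37° C. Lytic LgBiT luminescence was normalized against unmodified-K562 and DMSO-only controls, and IC50 was interpolated at 50% from a four-parameter logistic fit.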

[3] = system: HiBiT-tagged HTT protein in K562 cells; test: HiBiT protein abundance assay, HTT; format: cell-based, human; details: HiBiT-modified K562 cells, 24 hours, luminescence
Summary of the method: as §1

Row | SMILES | IC50 (MYB mRNA) [nM] | AC50 (MYB mRNA) [nM] | GI50 at 72 h [1] [nM] | IC50 [2] [nM] | IC50 [3] [nM]
1 | Cc1nc(-c2nc3ncn(C4CCNCC4)c(=O)c3s2)cc2cn(C)nc12 [Compound 251, 2-(2,7-dimethyl-2H-pyrazolo[3,4-c]pyridin-5-yl)-6-(piperidin-4-yl)thiazolo[4,5-d]pyrimidin-7(6H)-one] | 1000 to 10000 | > 10000 | 1000 to 10000 | 1000 to 10000 | 1000 to 10000
2 | Cn1cc2cc(-c3nc4ncn(C5CCNCC5)c(=O)c4s3)c(O)cc2n1 [Compound 253, 2-(6-hydroxy-2-methyl-2H-indazol-5-yl)-6-(piperidin-4-yl)thiazolo[4,5-d]pyrimidin-7(6H)-one, hydrochloride] | 1000 to 10000 | 1000 to 10000 | > 10000 | 1000 to 10000 | 1000 to 10000
3 | Cc1cn2cc(-n3cnc4nc(N5CCN(C)CC5)sc4c3=O)cc(C(F)(F)F)c2n1 [Compound 230, 6-(2-methyl-8-(trifluoromethyl)imidazo[1,2-a]pyridin-6-yl)-2-(4-methylpiperazin-1-yl)thiazolo[4,5-d]pyrimidin-7(6H)-one] | 100 to 1000 | 100 to 1000 | > 10000 | > 10000 | > 10000
4 | Cc1cn2cc(-n3cnc4nc(N5CCN(C)CC5)sc4c3=O)cc(F)c2n1 [Compound 228, 6-(8-fluoro-2-methylimidazo[1,2-a]pyridin-6-yl)-2-(4-methylpiperazin-1-yl)thiazolo[4,5-d]pyrimidin-7(6H)-one] | 1000 to 10000 | 1000 to 10000 | 1000 to 10000 | 1000 to 10000 | 1000 to 10000
5 | Cc1cn2nc(-c3cc4ncn(C5CCNCC5)c(=O)c4s3)cc2c(C)n1 [Compound 262] | 100 to 1000 | 100 to 1000 | 100 to 1000 | 100 to 1000 | 100 to 1000
6 | Cc1cn2cc(-c3cc4ncn([C@H]5CCN[C@H](C)C5)c(=O)c4s3)cc(F)c2n1 (relative stereo) [Compound 277, 6-{8-fluoro-2-methylimidazo[1,2-a]pyridin-6-yl}-3-[(trans)-2-methylpiperidin-4-yl]thieno[3,2-d]pyrimidin-4-one] | 100 to 1000 | 100 to 1000 | 100 to 1000 | 100 to 1000 | 100 to 1000
7 | Cc1cn2nc(-c3nc4sc(N5CCN(C)CC5)nc4c(=O)[nH]3)cc2c(C)n1 [Compound 268] | > 10000 | 1000 to 10000 | > 10000 | > 10000 | > 10000
8 | Cc1cn2cc(-c3nc4sc(C5CCN(C)CC5)cc4c(=O)[nH]3)cc(F)c2n1 [Compound 256, 2-(8-fluoro-2-methylimidazo[1,2-a]pyridin-6-yl)-6-(1-methylpiperidin-4-yl)thieno[2,3-d]pyrimidin-4(3H)-one] | > 10000 | > 10000 | > 10000 | > 10000 | > 10000
9 | Cc1cn2cc(N3CCc4cc(C5CCNCC5)sc4C3=O)cc(F)c2n1 [Compound 800, 6-[8-fluoro-2-methylimidazo[1,2-a]pyridin-6-yl]-2-(piperidin-4-yl)-4H,5H-thieno[2,3-c]pyridin-7-one] | > 10000 | > 10000 | > 10000 | > 10000 | > 10000
10 | Cc1cn2cc(-c3cc4ccn(C5CCN(C)CC5)c(=O)c4s3)cc(F)c2n1 [Compound 808, 2-(8-fluoro-2-methylimidazo[1,2-a]pyridin-6-yl)-6-(1-methylpiperidin-4-yl)thieno[2,3-c]pyridin-7(6H)-one] | 100 to 1000 | 100 to 1000 | 100 to 1000 | 100 to 1000 | 100 to 1000
11 | Cc1cc(-c2nn3c(=O)cc(N4CCNCC4)nc3s2)cc2cn(C)nc12 [Compound 206, 2-(2,7-dimethyl-2H-indazol-5-yl)-7-(piperazin-1-yl)-5H-[1,3,4]thiadiazolo[3,2-a]pyrimidin-5-one] | 1000 to 10000 | 1000 to 10000 | 1000 to 10000 | 1000 to 10000 | 1000 to 10000
12 | Cc1cn2nc(-c3cc4ncn(C5CCN(C)CC5)c(=O)c4s3)cc(C)c2n1 [Compound 239, 6-(2,8-dimethylimidazo[1,2-b]pyridazin-6-yl)-3-(1-methylpiperidin-4-yl)thieno[3,2-d]pyrimidin-4(3H)-one] | 1000 to 10000 | 100 to 1000 | 1000 to 10000 | 1000 to 10000 | 1000 to 10000
13 | Cc1cc(-c2nc3ncn(C4CCN(C)CC4)c(=O)c3s2)cc2cn(C)nc12 [Compound 234, 2-(2,7-dimethyl-2H-indazol-5-yl)-6-(1-methylpiperidin-4-yl)thiazolo[4,5-d]pyrimidin-7(6H)-one] | 100 to 1000 | < 100 | 100 to 1000 | < 100 | 100 to 1000
14 | Cc1cn2cc(-n3ccc4cc(C5CCNCC5)sc4c3=O)cc(F)c2n1 [Compound 801, 6-[8-fluoro-2-methylimidazo[1,2-a]pyridin-6-yl]-2-(piperidin-4-yl)thieno[2,3-c]pyridin-7-one] | > 10000 | > 10000 | > 10000 | > 10000 | > 10000
15 | Cc1cn2cc(-c3cc4ncn([C@H]5CCNC[C@@H]5F)c(=O)c4s3)cc(F)c2n1 (relative stereo) [Compound 272, trans-6-{8-fluoro-2-methylimidazo[1,2-a]pyridin-6-yl}-3-[3-fluoropiperidin-4-yl]thieno[3,2-d]pyrimidin-4-one] | 1000 to 10000 | 1000 to 10000 | > 10000 | 1000 to 10000 | 1000 to 10000
16 | Cn1cc2cc(-c3cc4ncn(C5CCNCC5)c(=O)c4s3)c(F)cc2n1 [Compound 258] | 100 to 1000 | 100 to 1000 | 1000 to 10000 | 100 to 1000 | 100 to 1000
17 | Cc1cn2cc(-c3nc4ncn(C5CCNCC5)c(=O)c4s3)cc(F)c2n1 [Compound 232, 2-(8-fluoro-2-methylimidazo[1,2-a]pyridin-6-yl)-6-(piperidin-4-yl)thiazolo[4,5-d]pyrimidin-7(6H)-one] | 100 to 1000 | 100 to 1000 | 100 to 1000 | 100 to 1000 | < 100
18 | Cn1cc2cc(-c3cc4ncn(C5CCNCC5)c(=O)c4s3)cc(F)c2n1 [Compound 257] | 1000 to 10000 | 1000 to 10000 | 1000 to 10000 | 1000 to 10000 | 1000 to 10000
